Reference: patent US9359337B2, “Acetamide derivatives” (Hoffmann-La Roche Inc., priority 2012, dated 2016)

molecular target: h-TRPA1 (Homo sapiens (Human), UniProt O75762); assay: Dose response calcium flux (FLIPR) assay, ChanTest hTRPA1-CHO stably transfected cell line; assay type: cell-based; details: CHO-K1 Tet-on TRPA1 cells; calcium flux after cinnamaldehyde 100 uM agonist; 30 min compound preincubation
Method: Dose Response Assay: ChanTest hTRPA1-CHO Stably Transfected Cell Line
To induce expression, tetracycline was added to blasticidin/zeocin-free media at a final concentration of 1 ug/ml. Experiments were run at 24 hours post induction.
• Harvested cells with 0.025% trypsin/EDTA. • Resuspended cells in growth media without selection antibiotics. • Measured cell density and diluted to 2.4×10^5 cells/ml in media containing 1 ug/ml Doxycycline Plate 25 ul/well into 384 well black/clear tissue culture-treated plates. • Incubated overnight at 37° C. Calcium Flux Assay: Day of Assay: Reagents: • Replacement Buffer: Hank's Balanced Salt Solution, 20 mM HEPES along with 0.005% BSA and 2× Probenecid • Dye Loading Buffer: Cal-3 NW Calcium dye was prepared by dissolving the contents of one vial with […] Hank's Balanced Salt Solution containing 20 mM HEPES. Control Compounds for CHOK1/TRPA1 Cells: • AP-18, stock 10 mM, prepare 3.5× compound dilution in a Compound Buffer (HBSS/20 mM HEPES/0.005% BSA)—final concentration 10 uM. Preparation of Cinnamaldehyde (Agonist Addition): • FW=132.16 • Specific gravity=1.046 gm/cc • 1.32 gm/1.046 gm/cc=1.26 ml of stock • Add 1.74 ml DMSO=3.3 M stock • Working solution 4.5× (final 100 uM in Compound Buffer: HBSS/20 mM HEPES/0.005% BSA) Compounds dilutions were prepared from 5 or 10 mM stock (100% DMSO):
Compounds were tested at either 20 μM three folds dilution 11 steps out or 30 μM two folds dilution 11 steps out.
Growth media was removed from the cell plates (20 ul) and 20 ul of the Replacement Buffer was added followed by addition of 25 ul of diluted dye. All three steps were performed using a Plate Washer BioTek 407. The plates were then incubated for 30′ at RT.
After incubation, both the cell and compound plates were brought to the FLIPR and 20 ul of the diluted compounds/antagonist/bk were transferred to the cell plates by the FLIPR. Plates were then incubated for 30′ at room temperature. After 30′ incubation, plates were returned to the FLIPR and 20 ul of 4.5× Cinnamaldehyde was added to the cell plates. During the compound addition as well as agonist addition, fluorescence readings were taken simultaneously from all 384 wells of the cell plate every 1.5 seconds. Five readings were taken to establish a stable baseline, then 20 ul of sample was rapidly (30 ul/sec) and simultaneously added to each well of the cell plate. The fluorescence was continuously monitored before, during and after sample/agonist addition for a total elapsed time of 100 seconds (compound addition) and 120 seconds (agonist addition). Responses (increase in peak fluorescence) in each well following agonist addition was determined. The initial fluorescence reading from each well, prior to ligand stimulation, was used a zero baseline value for the data from that well.

Chain of h-TRPA1 (O75762 whole entry): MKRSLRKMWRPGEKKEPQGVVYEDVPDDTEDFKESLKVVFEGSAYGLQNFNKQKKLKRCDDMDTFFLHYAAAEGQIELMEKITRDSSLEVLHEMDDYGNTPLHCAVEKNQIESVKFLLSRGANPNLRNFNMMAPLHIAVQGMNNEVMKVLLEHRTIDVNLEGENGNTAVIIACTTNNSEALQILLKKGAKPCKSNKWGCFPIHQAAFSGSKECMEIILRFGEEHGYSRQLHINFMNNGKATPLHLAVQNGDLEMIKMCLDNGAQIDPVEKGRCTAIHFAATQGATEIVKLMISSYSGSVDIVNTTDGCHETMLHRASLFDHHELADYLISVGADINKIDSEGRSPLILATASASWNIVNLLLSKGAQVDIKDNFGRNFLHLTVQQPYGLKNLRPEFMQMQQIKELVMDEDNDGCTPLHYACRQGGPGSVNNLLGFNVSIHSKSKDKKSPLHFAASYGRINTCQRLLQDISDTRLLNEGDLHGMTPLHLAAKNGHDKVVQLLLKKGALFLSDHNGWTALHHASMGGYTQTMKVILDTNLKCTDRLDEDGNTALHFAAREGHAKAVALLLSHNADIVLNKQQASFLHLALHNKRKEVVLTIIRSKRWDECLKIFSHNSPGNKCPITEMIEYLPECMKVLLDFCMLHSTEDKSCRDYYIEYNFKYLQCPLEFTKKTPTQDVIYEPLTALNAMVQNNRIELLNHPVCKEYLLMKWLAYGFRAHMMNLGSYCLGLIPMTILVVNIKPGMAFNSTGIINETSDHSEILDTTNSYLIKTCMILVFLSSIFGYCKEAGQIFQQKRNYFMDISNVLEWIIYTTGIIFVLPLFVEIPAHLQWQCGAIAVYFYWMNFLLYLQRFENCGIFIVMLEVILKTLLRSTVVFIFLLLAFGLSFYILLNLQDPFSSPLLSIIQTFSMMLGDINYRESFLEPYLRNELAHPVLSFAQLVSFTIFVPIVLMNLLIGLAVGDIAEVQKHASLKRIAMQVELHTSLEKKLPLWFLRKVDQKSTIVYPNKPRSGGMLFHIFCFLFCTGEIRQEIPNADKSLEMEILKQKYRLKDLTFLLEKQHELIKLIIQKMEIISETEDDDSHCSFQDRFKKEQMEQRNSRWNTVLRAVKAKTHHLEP

| SMILES | IC50 |
| --- | --- |
| CC(C)N(CC(=O)NC[C@H]1CCCN(c2ccc(C(F)(F)F)cc2)C1)S(=O)(=O)c1ccc(F)cc1 [Example 6, 2-[(4-Fluoro-benzenesulfonyl)-isopropyl-amino]-N—[(R)-1-(4-trifluoromethyl-phenyl)-piperidin-3-ylmethyl]-acetamide] | 504 nM |
| CCN(CC(=O)NCC1CCCN(c2ccc(C(F)(F)F)cc2)C1)S(=O)(=O)c1ccc(F)cc1 (centres unmarked) [Example 1, 2-[Ethyl-(4-fluoro-benzenesulfonyl)-amino]-N-[1-(4-trifluoromethyl-phenyl)-piperidin-3-ylmethyl]-acetamide] | 494 nM |
| CC(C)N(CC(=O)NC[C@@H]1CCCN(c2ccc(C(F)(F)F)cc2)C1)S(=O)(=O)c1ccc(F)cc1 [Example 5, 2-[(4-Fluoro-benzenesulfonyl)-isopropyl-amino]-N—[(S)-1-(4-trifluoromethyl-phenyl)-piperidin-3-ylmethyl]-acetamide] | 307 nM |
| CCN(CC(=O)NCC1CCN(c2ccc(C(F)(F)F)cc2)C1)S(=O)(=O)c1ccc(F)cc1 (centres unmarked) [Example 3, 2-[Ethyl-(4-fluoro-benzenesulfonyl)-amino]-N-[1-(4-trifluoromethyl-phenyl)-pyrrolidin-3-ylmethyl]-acetamide] | 634 nM |
| CCN(CC(=O)NCC1CN(c2ccc(C(F)(F)F)cc2)CCO1)S(=O)(=O)c1ccc(F)cc1 (centres unmarked) [Example 9, 2-[Ethyl-(4-fluoro-benzenesulfonyl)-amino]-N-[4-(4-trifluoromethyl-phenyl)-morpholin-2-ylmethyl]-acetamide] | 226 nM |
| CC(C)N(CC(=O)NCC1CCCN(c2ccc(C(F)(F)F)cc2)C1)S(=O)(=O)c1ccc(F)cc1 (racemic) [Example 2, 2-[(4-Fluoro-benzenesulfonyl)-isopropyl-amino]-N-[1-(4-trifluoromethyl-phenyl)-piperidin-3-ylmethyl]-acetamide] | 233 nM |

Second part, the compound after the results:

| IC50 | SMILES |
| --- | --- |
| 193 nM | CC(C)N(CC(=O)NCC1CN(c2ccc(C(F)(F)F)cc2)CCO1)S(=O)(=O)c1ccc(F)cc1 (racemic) [Example 8, 2-[(4-Fluoro-benzenesulfonyl)-isopropyl-amino]-N-[4-(4-trifluoromethyl-phenyl)-morpholin-2-ylmethyl]-acetamide] |
| 385 nM | CC(C)N(CC(=O)NCC1CN(c2ccc(C(F)(F)F)cn2)CCO1)S(=O)(=O)c1ccc(F)cc1 (centres unmarked) [Example 12, 2-[(4-Fluoro-benzenesulfonyl)-isopropyl-amino]-N-[4-(5-trifluoromethyl-pyridin-2-yl)-morpholin-2-ylmethyl]-acetamide] |
| 425 nM | CC(C)N(CC(=O)NCC1CCN(c2ccc(C(F)(F)F)cc2)C1)S(=O)(=O)c1ccc(F)cc1 (centres unmarked) [Example 4, 2-[(4-Fluoro-benzenesulfonyl)-isopropyl-amino]-N-[1-(4-trifluoromethyl-phenyl)-pyrrolidin-3-ylmethyl]-acetamide] |
| 1310 nM | CC(C)N(CC(=O)NC[C@@H]1CN(c2ccc(C(F)(F)F)cc2)CCO1)S(=O)(=O)c1ccc(F)cc1 [Example 10, 2-[(4-Fluoro-benzenesulfonyl)-isopropyl-amino]-N—[(R)-4-(4-trifluoromethyl-phenyl)-morpholin-2-ylmethyl]-acetamide] |
| 151 nM | CC(C)N(CC(=O)NC[C@H]1CN(c2ccc(C(F)(F)F)cc2)CCO1)S(=O)(=O)c1ccc(F)cc1 [Example 11, 2-[(4-Fluoro-benzenesulfonyl)-isopropyl-amino]-N—[(S)-4-(4-trifluoromethyl-phenyl)-morpholin-2-ylmethyl]-acetamide] |
